Data published in ChEMBL document CHEMBL2412969, “Antihyperglycemic and antihyperlipidemic activities of 2-(4-[(2-hydroxybenzyl) amino]-phenyl amino-methyl)-phenol in STZ induced diabetic rats” (Eur J Med Chem, 2013).
Activity calls are given as the source filed them. The calls are words filed in the database; no cut-off is given here.

Assays:
[1] = tested on: Rattus norvegicus; test: Antihyperglycemic activity in Wistar albino rat streptozotocin-induced diabetic model assessed as reduction of blood glucose level at 30 mg/kg, po after 3 hrs (reference value: 384.33 +/- 17.33 mg/dl); assay type: functional
[2] = tested on: Rattus norvegicus; test: Antihyperglycemic activity in Wistar albino rat streptozotocin-induced diabetic model assessed as reduction of blood glucose level at 30 mg/kg, po after 2 hrs (reference value: 386.66 +/- 17.5 mg/dl); assay type: functional
[3] = tested on: Rattus norvegicus; test: Antihyperglycemic activity in Wistar albino rat streptozotocin-induced diabetic model assessed as reduction of blood glucose level at 30 mg/kg, po after 1 hr (reference value: 389.16 +/- 19 mg/dl); assay type: functional
[4] = tested on: Rattus norvegicus; test: Antihyperglycemic activity in Wistar albino rat streptozotocin-induced diabetic model assessed as reduction of blood glucose level at 20 mg/kg, po after 5 hrs (reference value: 372.2 +/- 16.6 mg/dl); assay type: functional
[5] = tested on: Rattus norvegicus; test: Antihyperglycemic activity in Wistar albino rat streptozotocin-induced diabetic model assessed as reduction of blood glucose level at 20 mg/kg, po after 1 hr (reference value: 389.16 +/- 19 mg/dl); assay type: functional
[6] = tested on: Rattus norvegicus; test: Hypoglycemic activity in Wistar albino rat assessed as reduction of blood glucose level at 60 mg/kg, po after 6 hrs (reference value: 73.3 +/- 4.4 mg/dl); assay type: ADME, organism-based; design: dose 60 mg/kg, route oral; conditions: in vivo
[7] = tested on: Rattus norvegicus; test: Hypoglycemic activity in Wistar albino rat assessed as reduction of blood glucose level at 60 mg/kg, po after 5 hrs (reference value: 73.8 +/- 4.5 mg/dl); assay type: ADME, organism-based; design: dose 60 mg/kg, route oral; conditions: in vivo
[8] = tested on: Rattus norvegicus; test: Hypoglycemic activity in Wistar albino rat assessed as reduction of blood glucose level at 60 mg/kg, po after 4 hrs (reference value: 75.8 +/- 4.7 mg/dl); assay type: ADME, organism-based; design: dose 60 mg/kg, route oral; conditions: in vivo
[9] = tested on: Rattus norvegicus; test: Hypoglycemic activity in Wistar albino rat assessed as reduction of blood glucose level at 60 mg/kg, po after 3 hrs (reference value: 76.3 +/- 5.4 mg/dl); assay type: ADME, organism-based; design: dose 60 mg/kg, route oral; conditions: in vivo
[10] = tested on: Rattus norvegicus; test: Hypoglycemic activity in Wistar albino rat assessed as reduction of blood glucose level at 30 mg/kg, po after 6 hrs (reference value: 73.3 +/- 4.4 mg/dl); assay type: ADME, organism-based; design: dose 30 mg/kg, route oral; conditions: in vivo
[11] = tested on: Rattus norvegicus; test: Hypoglycemic activity in Wistar albino rat assessed as reduction of blood glucose level at 30 mg/kg, po after 5 hrs (reference value: 73.8 +/- 4.5 mg/dl); assay type: ADME, organism-based; design: dose 30 mg/kg, route oral; conditions: in vivo
[12] = tested on: Rattus norvegicus; test: Hypoglycemic activity in Wistar albino rat assessed as reduction of blood glucose level at 30 mg/kg, po after 4 hrs (reference value: 75.8 +/- 4.7 mg/dl); assay type: ADME, organism-based; design: dose 30 mg/kg, route oral; conditions: in vivo
[13] = tested on: Rattus norvegicus; test: Hypoglycemic activity in Wistar albino rat assessed as reduction of blood glucose level at 30 mg/kg, po after 2 hrs (reference value: 76.5 +/- 3.7 mg/dl); assay type: ADME, organism-based; design: dose 30 mg/kg, route oral; conditions: in vivo
[14] = tested on: Rattus norvegicus; test: Hypoglycemic activity in Wistar albino rat assessed as reduction of blood glucose level at 30 mg/kg, po after 1 hr (reference value: 71.26 +/- 4.3 mg/dl); assay type: ADME, organism-based; design: dose 30 mg/kg, route oral; conditions: in vivo
[15] = tested on: Rattus norvegicus; test: Hypoglycemic activity in Wistar albino rat assessed as reduction of blood glucose level at 20 mg/kg, po after 1 hr (reference value: 71.26 +/- 4.3 mg/dl); assay type: ADME, organism-based; design: dose 20 mg/kg, route oral; conditions: in vivo
[16] = tested on: Rattus norvegicus; test: Hepatotoxicity in Wistar albino rat assessed as AST, ALT and ALP level in serum at 30 mg/kg, po qd for 30 days; assay type: toxicity, organism-based; design: dose 30 mg/kg, route oral; conditions: in vivo, 720 h
[17] = tested on: Rattus norvegicus; test: Renalprotective activity in Wistar albino rat assessed as protection against streptozotocin-induced increase in creatinine level in blood at 30 mg/kg, po qd for 30 days; assay type: functional
[18] = tested on: Rattus norvegicus; test: Renaltoxicity in Wistar albino rat assessed as urea level in blood at 30 mg/kg, po qd for 30 days; assay type: organism-based; design: dose 30 mg/kg, route oral; conditions: in vivo, 720 h
[19] = tested on: Rattus norvegicus; test: Antiatherosclerosis activity in Wistar albino rat assessed as protection from atherogenicity at 30 mg/kg, po qd for 30 days relative to control; assay type: functional
[20] = tested on: Rattus norvegicus; test: Antihyperlipidemic activity in Wistar albino rat streptozotocin-induced diabetic model assessed as increase of serum HDL-cholesterol level at 30 mg/kg, po qd for 30 days; assay type: functional, organism-based; design: dose 30 mg/kg
[21] = tested on: Rattus norvegicus; test: Antihyperlipidemic activity in Wistar albino rat streptozotocin-induced diabetic model assessed as reduction of serum VLDL-cholesterol level at 30 mg/kg, po qd for 30 days; assay type: functional, organism-based; design: dose 30 mg/kg
[22] = tested on: Rattus norvegicus; test: Antihyperlipidemic activity in Wistar albino rat streptozotocin-induced diabetic model assessed as reduction of serum LDL level at 30 mg/kg, po qd for 30 days; assay type: functional, organism-based; design: dose 30 mg/kg
[23] = tested on: Rattus norvegicus; test: Antihyperlipidemic activity in Wistar albino rat streptozotocin-induced diabetic model assessed as reduction of serum total cholesterol level at 30 mg/kg, po qd for 30 days; assay type: functional, organism-based; design: dose 30 mg/kg
[24] = tested on: Rattus norvegicus; test: Antihyperlipidemic activity in Wistar albino rat streptozotocin-induced diabetic model assessed as reduction of serum triglyceride level at 30 mg/kg, po qd for 30 days; assay type: functional, organism-based; design: dose 30 mg/kg
[25] = tested on: Rattus norvegicus; test: Toxicity in Wistar albino rat assessed as increase of body weight at 30 mg/kg, po qd measured on day 30 (reference value: 8.82%); assay type: organism-based; design: dose 30 mg/kg, route oral; conditions: in vivo
[26] = tested on: Rattus norvegicus; test: Antihyperglycemic activity in Wistar albino rat streptozotocin-induced diabetic model assessed as reduction of fasting blood glucose level at 30 mg/kg, po qd measured on day 30 relative to control; assay type: functional
[27] = tested on: Rattus norvegicus; test: Antihyperglycemic activity in Wistar albino rat streptozotocin-induced diabetic model assessed as reduction of fasting blood glucose level at 30 mg/kg, po qd measured on day 15 (reference value: 404.2 +/- 29.15 mg/dl); assay type: functional
[28] = tested on: Rattus norvegicus; test: Hypoglycemic activity in Wistar albino rat assessed as reduction of fasting blood glucose level at 30 mg/kg, po qd measured on day 1 (reference value: 89 +/- 6.4 mg/dl); assay type: ADME, organism-based; design: dose 30 mg/kg, route oral; conditions: in vivo
[29] = tested on: Rattus norvegicus; test: Antihyperglycemic activity in glucose loaded Wistar albino rat streptozotocin-induced diabetic model assessed as reduction of blood glucose level at 30 mg/kg, po after 3 hrs by oral glucose tolerance test; assay type: functional; design: scale not given: the % may be the effect or the level left
[30] = tested on: Rattus norvegicus; test: Antihyperglycemic activity in glucose loaded Wistar albino rat streptozotocin-induced diabetic model assessed as reduction of blood glucose level at 30 mg/kg, po after 1 hr by oral glucose tolerance test; assay type: functional, organism-based; design: dose 30 mg/kg
[31] = tested on: Rattus norvegicus; test: Antihyperglycemic activity in Wistar albino rat streptozotocin-induced diabetic model assessed as reduction of blood glucose level at 60 mg/kg, po after 6 hrs (reference value: 372.5 +/- 15.6 mg/dl); assay type: functional
[32] = tested on: Rattus norvegicus; test: Antihyperglycemic activity in Wistar albino rat streptozotocin-induced diabetic model assessed as reduction of blood glucose level at 60 mg/kg, po after 5 hrs (reference value: 372.2 +/- 16.6 mg/dl); assay type: functional
[33] = tested on: Rattus norvegicus; test: Antihyperglycemic activity in Wistar albino rat streptozotocin-induced diabetic model assessed as reduction of blood glucose level at 60 mg/kg, po after 4 hrs (reference value: 373.5 +/- 15.6 mg/dl); assay type: functional
[34] = tested on: Rattus norvegicus; test: Antihyperglycemic activity in Wistar albino rat streptozotocin-induced diabetic model assessed as reduction of blood glucose level at 60 mg/kg, po after 3 hrs (reference value: 384.33 +/- 17.33 mg/dl); assay type: functional
[35] = tested on: Rattus norvegicus; test: Antihyperglycemic activity in Wistar albino rat streptozotocin-induced diabetic model assessed as reduction of blood glucose level at 60 mg/kg, po after 1 hr (reference value: 389.16 +/- 19 mg/dl); assay type: functional

Which Activity [1] does the source give for `Oc1ccccc1CNc1ccc(NCc2ccccc2O)cc1` here?
Its Activity is 248.8 mg/dL.

What about the Activity [2] of the same molecule?
The Activity was 252.1 mg/dL.

And the Activity [3]?
Its Activity is 315.2 mg/dL.

What about the Activity [4] of the same molecule?
The Activity was 204.8 mg/dL.

What about the Activity [5] of the same molecule?
Its Activity is 357.5 mg/dL.

And the Activity [6]?
Its Activity is 75 mg/dL.

What about the Activity [7] of the same molecule?
The Activity was 78 mg/dL.

What about the Activity [8] of the same molecule?
Its Activity is 79.3 mg/dL.

And the Activity [9]?
Its Activity is 73.6 mg/dL.

And the Activity [10]?
The Activity was 72.5 mg/dL.

What about the Activity [11] of the same molecule?
Its Activity is 72.8 mg/dL.

What about the Activity [12] of the same molecule?
The Activity was 73.16 mg/dL.

And the Activity [13]?
The Activity was 73.66 mg/dL.

And the Activity [14]?
Its Activity is 74.16 mg/dL.

And the Activity [15]?
Its Activity is 74.12 mg/dL.

What about the Activity [16] of the same molecule?
The Activity was “Non-toxic”.

And the Activity [17]?
Its Activity is 0.462 mg/dL.

What about the Activity [18] of the same molecule?
Its Activity is 43.25 mg/dL.

What about the Activity [19] of the same molecule?
The Activity was 70.1%.

What about the Activity [20] of the same molecule?
The Activity was “Active”.

And the Activity [21]?
The Activity was “Active”.

What about the Activity [22] of the same molecule?
The Activity was “Active”.

And the Activity [23]?
Its Activity is “Active”.

And the Activity [24]?
Its Activity is “Active”.

And the Activity [25]?
The Activity was 2.94%.

What about the Activity [26] of the same molecule?
The Activity was 113.5 mg/dL.

What about the Activity [27] of the same molecule?
The Activity was 247.5 mg/dL.

What about the Activity [28] of the same molecule?
The Activity was 90.6 mg/dL.

What about the Activity [29] of the same molecule?
Its Activity is 56%.

And the Activity [30]?
Its Activity is “Active”.

What about the Activity [31] of the same molecule?
Its Activity is 36.8 mg/dL.

And the Activity [32]?
The Activity was 49.1 mg/dL.

What about the Activity [33] of the same molecule?
The Activity was 54.8 mg/dL.

What about the Activity [34] of the same molecule?
Its Activity is 61.4 mg/dL.

What about the Activity [35] of the same molecule?
The Activity was 233.16 mg/dL.
